In general, IC50 refers to the concentration that gives 50% inhibition.

Read-outs that look alike come from different tables or passages of the source.

Our source for the IC50 values is patent US11464770B2, “Anticancer pharmaceutical composition” (NATIONAL CANCER CENTER, priority 2016, dated 2022).

In test [1] the test system is bladder cancer cell lines. Nature of the test: Cell based assay, cell viability (CellTiter-Glo), bladder cancer cell lines. The settings on record: 72 hours treatment, 0 to 2 μM, CellTiter-Glo. The method, then: (§1) Commercially available bladder cancer, prostate cancer, lung cancer, breast cancer, blood cancer, pancreatic cancer, colorectal cancer, brain cancer, neuroblastoma, melanoma, liver cancer, cervical carcinoma, ovarian cancer, renal cancer, and papilloma cell lines were each treated with trypsin-EDTA and cultured, followed by being seeded in each well of a 96 well plate. After 24 hours of treatment at constant temperature, the respective cells were treated with the candidate compound so that a final concentration became 0 to 2 μM. The treated cells were additionally cultured for 72 hours, and cell viability was measured by using an ATP detection method (CellTiter-Glo® Luminescent Cell Viability Assay, Promega).
(Cellular ATP, detected with luciferase, serves as a proxy for viable cell number.)

Another test relates to neuroblastoma cell lines. The experiment in a line: Cell based assay, cell viability (CellTiter-Glo), neuroblastoma cell lines. The settings on record: Homo sapiens; SH-SY5Y cell line. The method, then:
as §1

In another test the test system is liver cancer cell lines. The experiment in a line: Cell based assay, cell viability (CellTiter-Glo), liver cancer cell lines. The settings on record: Homo sapiens, SK-HEP1; SK-HEP-1 cell line. The method, then:
as §1

In test [2] the test system is ovarian cancer cell lines. Nature of the test: Cell based assay, cell viability (CellTiter-Glo), ovarian cancer cell lines. Particulars: Homo sapiens; OVCAR-3 cells. The method, then:
as §1

In another test the test system is renal cancer cell lines. Nature of the test: Cell based assay, cell viability (CellTiter-Glo), renal cancer cell lines. Particulars: Homo sapiens; ACHN cells. The method, then:
as §1

For test [3], the system named is RT4: human urinary bladder transitional cell papilloma. Nature of the test: Cell based assay, cytotoxicity in RT4 papilloma cells (selectivity). Particulars: Homo sapiens, RT-4; RT4 cells. The method, then: Commercially available bladder cancer, prostate cancer, lung cancer, breast cancer, blood cancer, pancreatic cancer, colorectal cancer, brain cancer, neuroblastoma, melanoma, liver cancer, cervical carcinoma, ovarian cancer, renal cancer, and papilloma cell lines were each treated with trypsin-EDTA and cultured, followed by being seeded in each well of a 96 well plate. […] The treated cells were additionally cultured for 72 hours, and cell viability was measured by using an ATP detection method (CellTiter-Glo® Luminescent Cell Viability Assay, Promega).

Setting [4] is: 253J cells, read-out: IC50, bladder cancer cell line 253J.
Where [5] appears, read: 5637 cells, read-out: IC50, bladder cancer cell line 5637.
[6] abbreviates: Homo sapiens, T-24, T24 cells, read-out: IC50, bladder cancer cell line T24.
Where [7] appears, read: Homo sapiens, UMUC3, UM-UC-3 cells, read-out: IC50, bladder cancer cell line UM-UC-3.
Where [8] appears, read: Homo sapiens, J82 cells, read-out: IC50, bladder cancer cell line J82.
Setting [9] is: Homo sapiens, KU-19-19 cells, read-out: IC50, bladder cancer cell line KU-19-19.
Setting [10] is: MBT-2 cells, read-out: IC50, bladder cancer cell line MBT-2.

As to `CC(=O)c1c([S+](C)[O-])n(S(=O)(=O)C(F)(F)F)c2c(Br)ccc(Cl)c2c1=O` (stereo not drawn) [Compound 36, 3-acetyl-8-bromo-5-chloro-2-(methylsulfinyl)-1-((trifluoromethyl)sulfonyl)quinolin-4(1H)-one], the IC50 in test [1] (setting [4]), in test [1] (setting [5]), in test [1] (setting [6]), in test [1] (setting [7]), in test [1] (setting [8]) and in test [1] (setting [9]) was > 2 µM each time. The IC50 in test [1] (setting [10]) is 1.28 µM; with neuroblastoma cell lines, > 2 µM; in the test on liver cancer cell lines it was > 2 µM; in test [2] it was > 2 µM; in the test on renal cancer cell lines, > 2 µM; in test [3], > 10 µM.

Regarding `CSc1c(C(C)=O)c(=O)c2c(Cl)ccc(Br)c2n1S(=O)(=O)c1ccc(Cl)cc1` [Compound 37, 3-acetyl-8-bromo-5-chloro-1-((4-chlorophenyl)sulfonyl)-2-(methylthio)quinolin-4(1H)-one], the IC50 in test [1] (setting [4]), in test [1] (setting [5]), in test [1] (setting [6]), in test [1] (setting [7]), in test [1] (setting [8]) and in test [1] (setting [9]) was > 2 µM each time. For the same compound, the IC50 in test [1] (setting [10]) is > 2 µM; in the test with neuroblastoma cell lines, > 2 µM; with liver cancer cell lines, > 2 µM; in test [2], > 2 µM; with renal cancer cell lines it was > 2 µM; in test [3], > 10 µM.

Turning to `CSc1c(C(C)=O)c(=O)c2c(Cl)ccc(Br)c2n1S(=O)(=O)c1ccc([N+](=O)[O-])cc1` [Compound 38, 3-acetyl-8-bromo-5-chloro-2-(methylthio)-1-((4-nitrophenyl)sulfonyl)quinolin-4(1H)-one], the IC50 in test [1] (setting [4]), in test [1] (setting [5]), in test [1] (setting [6]), in test [1] (setting [7]), in test [1] (setting [8]) and in test [1] (setting [9]) was > 2 µM throughout. In addition, the IC50 in test [1] (setting [10]) is > 2 µM; in the test with neuroblastoma cell lines, > 2 µM; with liver cancer cell lines, > 2 µM; in test [2], > 2 µM; in the test on renal cancer cell lines it was > 2 µM; in test [3] it was > 10 µM.

With `CCS(=O)(=O)n1c([S+](C)[O-])c(C(C)=O)c(=O)c2c(Cl)ccc(Br)c21` (stereo not drawn) [Compound 39, 3-acetyl-8-bromo-5-chloro-1-(ethylsulfonyl)-2-(methylsulfinyl)quinolin-4(1H)-one], the IC50 in test [1] (setting [4]), in test [1] (setting [5]), in test [1] (setting [6]), in test [1] (setting [7]), in test [1] (setting [8]) and in test [1] (setting [9]) was > 2 µM throughout. Further, the concentration for half-maximal inhibition (IC50) in test [1] (setting [10]) is > 2 µM; with neuroblastoma cell lines, > 2 µM; with liver cancer cell lines it was > 2 µM; in test [2], > 2 µM; in the test on renal cancer cell lines it was > 2 µM; in test [3], > 10 µM.

As to `CSc1c(C(C)=O)c(=O)c2c(Cl)ccc(Br)c2n1S(=O)(=O)c1ccc(C(C)(C)C)cc1` [Compound 40, 3-acetyl-8-bromo-1-((4-(tert-butyl)phenyl)sulfonyl)-5-chloro-2-(methylthio)quinolin-4(1H)-one], the IC50 in test [1] (setting [4]), in test [1] (setting [5]), in test [1] (setting [6]), in test [1] (setting [7]), in test [1] (setting [8]) and in test [1] (setting [9]) was > 2 µM throughout. The IC50 is > 2 µM in test [1] (setting [10]); > 2 µM with neuroblastoma cell lines; > 2 µM with liver cancer cell lines; > 2 µM in test [2]; > 2 µM with renal cancer cell lines; > 10 µM in test [3].

`CC(=O)c1c(S(C)(=O)=O)n(S(=O)(=O)c2ccc(C(C)(C)C)cc2)c2c(Br)ccc(Cl)c2c1=O` [Compound 41, 3-acetyl-8-bromo-1-((4-(tert-butyl)phenyl)sulfonyl)-5-chloro-2-(methylsulfonyl)quinolin-4(1H)-one]: the half-maximal inhibitory concentration (IC50) in test [1] (setting [4]), in test [1] (setting [5]), in test [1] (setting [6]), in test [1] (setting [7]), in test [1] (setting [8]) and in test [1] (setting [9]) was > 2 µM each time. The IC50 was > 2 µM in test [1] (setting [10]); > 2 µM in the test with neuroblastoma cell lines; > 2 µM in the test on liver cancer cell lines; > 2 µM in test [2]; > 2 µM in the test with renal cancer cell lines; > 10 µM in test [3].

Turning to `CC(=O)c1c([S+](C)[O-])n(S(=O)(=O)c2ccc(C(C)(C)C)cc2)c2c(Br)ccc(Cl)c2c1=O` (stereo not drawn) [Compound 42, 3-acetyl-8-bromo-1-((4-(tert-butyl)phenyl)sulfonyl)-5-chloro-2-(methylsulfinyl)quinolin-4(1H)-one], the 50% inhibitory concentration (IC50) is > 2 µM in test [1] (setting [4]); > 2 µM in test [1] (setting [5]); > 2 µM in test [1] (setting [6]); 1.89 µM in test [1] (setting [7]); > 2 µM in test [1] (setting [8]); > 2 µM in test [1] (setting [9]). The IC50 in test [1] (setting [10]) was > 2 µM; in the test on neuroblastoma cell lines, > 2 µM; with liver cancer cell lines, > 2 µM; in test [2], > 2 µM; in the test on renal cancer cell lines, > 2 µM; in test [3], > 10 µM.

With `CC(=O)c1c(SCc2cc(Cl)ccc2Cl)[nH]c2c(Br)ccc(Cl)c2c1=O` [Compound 43, 3-acetyl-8-bromo-5-chloro-2-((2,5-dichlorobenzyl)thio)quinolin-4(1H)-one], the IC50 in test [1] (setting [4]), in test [1] (setting [5]), in test [1] (setting [6]), in test [1] (setting [7]), in test [1] (setting [8]) and in test [1] (setting [9]) was > 2 µM throughout. For the same compound, the IC50 was > 2 µM in test [1] (setting [10]); > 2 µM in the test on neuroblastoma cell lines; > 2 µM with liver cancer cell lines; > 2 µM in test [2]; > 2 µM in the test with renal cancer cell lines; > 10 µM in test [3].

For the compound `CC(=O)c1c(SCc2cc(F)cc(F)c2)[nH]c2c(Br)ccc(Cl)c2c1=O` [Compound 45, 3-acetyl-8-bromo-5-chloro-2-((3,5-difluorobenzyl)thio)quinolin-4(1H)-one], the IC50 in test [1] (setting [4]), in test [1] (setting [5]), in test [1] (setting [6]), in test [1] (setting [7]), in test [1] (setting [8]) and in test [1] (setting [9]) was > 2 µM in each case. Besides, the IC50 was > 2 µM in test [1] (setting [10]); > 2 µM in the test with neuroblastoma cell lines; > 2 µM in the test with liver cancer cell lines; > 2 µM in test [2]; > 2 µM with renal cancer cell lines; > 10 µM in test [3].

Take `CC(=O)c1c(SCc2cccc(I)c2)[nH]c2c(Br)ccc(Cl)c2c1=O` [Compound 47, 3-acetyl-8-bromo-5-chloro-2-((3-iodobenzyl)thio)quinolin-4(1H)-one]: the concentration for half-maximal inhibition (IC50) in test [1] (setting [4]), in test [1] (setting [5]), in test [1] (setting [6]), in test [1] (setting [7]), in test [1] (setting [8]) and in test [1] (setting [9]) was > 2 µM throughout. Also, the IC50 is > 2 µM in test [1] (setting [10]); > 2 µM in the test with neuroblastoma cell lines; > 2 µM in the test with liver cancer cell lines; > 2 µM in test [2]; > 2 µM in the test on renal cancer cell lines; > 10 µM in test [3].

`CC(=O)c1c([S+]([O-])Cc2cccc(I)c2)[nH]c2c(Br)ccc(Cl)c2c1=O` (stereo not drawn) [Compound 48, 3-acetyl-8-bromo-5-chloro-2-((3-iodobenzyl)sulfinyl)quinolin-4(1H)-one]: the IC50 (in test [1] (setting [4]); in test [1] (setting [5]); in test [1] (setting [6]); in test [1] (setting [8]); with neuroblastoma cell lines; in the test with liver cancer cell lines) was > 2 µM in each case. The figures for the IC50 (in test [2]; in the test with renal cancer cell lines; in test [3]) were > 2 µM, > 2 µM and > 10 µM, respectively.

`CC(=O)c1c(SCc2cccc(F)c2)[nH]c2c(Br)ccc(Cl)c2c1=O` [Compound 49, 3-acetyl-8-bromo-5-chloro-2-((3-fluorobenzyl)thio)quinolin-4(1H)-one]: the IC50 in test [1] (setting [4]), in test [1] (setting [5]), in test [1] (setting [6]), in test [1] (setting [7]), in test [1] (setting [8]) and in test [1] (setting [9]) was > 2 µM in each case. Moreover, the IC50 was > 2 µM in test [1] (setting [10]); > 2 µM in the test with neuroblastoma cell lines; > 2 µM with liver cancer cell lines; > 2 µM in test [2]; > 2 µM in the test with renal cancer cell lines; > 10 µM in test [3].

As to `CC(=O)c1c(SCc2ccccc2)nc2c(Br)ccc(Cl)c2c1O` [Compound 52, 1-(2-(benzylthio)-8-bromo-5-chloro-4-hydroxyquinolin-3-yl)ethan-1-one], the IC50 in test [1] (setting [4]), in test [1] (setting [5]), in test [1] (setting [6]), in test [1] (setting [7]), in test [1] (setting [8]) and in test [1] (setting [9]) was > 2 µM each time. In addition, the IC50 in test [1] (setting [10]) was > 2 µM; in the test with neuroblastoma cell lines, > 2 µM; with liver cancer cell lines it was > 2 µM; in test [2], > 2 µM; in the test with renal cancer cell lines it was > 2 µM; in test [3], > 10 µM.

In the case of `CC(=O)c1c([S+]([O-])Cc2ccccc2)nc2c(Br)ccc(Cl)c2c1O` (stereo not drawn) [Compound 53, 1-(2-(benzylsulfinyl)-8-bromo-5-chloro-4-hydroxyquinolin-3-yl)ethan-1-one], the IC50 (in test [1] (setting [4]); in test [1] (setting [5]); in test [1] (setting [6]); in test [1] (setting [8]); with neuroblastoma cell lines; in the test on liver cancer cell lines) was > 2 µM in each case. The IC50 in test [2] was > 2 µM; in the test on renal cancer cell lines, > 2 µM; in test [3], > 10 µM.
